Columns and labels:
Conditions in all cases: Compound concentration 10.0 uM, Protein concentration 2.0 uM
[1] = molecular target: Nuclear body protein SP140 (Homo sapiens) (UniProt Q13342)
[2] = molecular target: Bromodomain testis-specific protein (Homo sapiens) (UniProt Q58F21)
[3] = molecular target: Histone-lysine N-methyltransferase 2A (Homo sapiens) (UniProt Q03164)
[4] = molecular target: Bromodomain-containing protein 9 (Homo sapiens) (UniProt Q9H8M2)
[5] = molecular target: Bromodomain and WD repeat-containing protein 3 (Homo sapiens) (UniProt Q6RI45)
Peregrin (Homo sapiens) [6] = molecular target: Peregrin (Homo sapiens) (UniProt P55201)
[7] = molecular target: ATPase family AAA domain-containing protein 2B (Homo sapiens) (UniProt Q9ULI0)
[8] = molecular target: Bromodomain-containing protein 7 (Homo sapiens) (UniProt Q9NPI1)
[9] = molecular target: Transcription intermediary factor 1-beta (Homo sapiens) (UniProt Q13263)
[10] = molecular target: ATPase family AAA domain-containing protein 2 (Homo sapiens) (UniProt Q6PL18)
[11] = molecular target: SWI/SNF-related matrix-associated actin-dependent regulator of chromatin subfamily A member 4 (Homo sapiens) (UniProt P51532)
[12] = molecular target: Bromodomain-containing protein 4 (Homo sapiens) (UniProt O60885)
[13] = molecular target: Transcription intermediary factor 1-alpha (Homo sapiens) (UniProt O15164)
[14] = molecular target: Protein polybromo-1 (Homo sapiens) (UniProt Q86U86)
Protein polybromo-1 (Homo sapiens), sequence (Q86U86 whole entry): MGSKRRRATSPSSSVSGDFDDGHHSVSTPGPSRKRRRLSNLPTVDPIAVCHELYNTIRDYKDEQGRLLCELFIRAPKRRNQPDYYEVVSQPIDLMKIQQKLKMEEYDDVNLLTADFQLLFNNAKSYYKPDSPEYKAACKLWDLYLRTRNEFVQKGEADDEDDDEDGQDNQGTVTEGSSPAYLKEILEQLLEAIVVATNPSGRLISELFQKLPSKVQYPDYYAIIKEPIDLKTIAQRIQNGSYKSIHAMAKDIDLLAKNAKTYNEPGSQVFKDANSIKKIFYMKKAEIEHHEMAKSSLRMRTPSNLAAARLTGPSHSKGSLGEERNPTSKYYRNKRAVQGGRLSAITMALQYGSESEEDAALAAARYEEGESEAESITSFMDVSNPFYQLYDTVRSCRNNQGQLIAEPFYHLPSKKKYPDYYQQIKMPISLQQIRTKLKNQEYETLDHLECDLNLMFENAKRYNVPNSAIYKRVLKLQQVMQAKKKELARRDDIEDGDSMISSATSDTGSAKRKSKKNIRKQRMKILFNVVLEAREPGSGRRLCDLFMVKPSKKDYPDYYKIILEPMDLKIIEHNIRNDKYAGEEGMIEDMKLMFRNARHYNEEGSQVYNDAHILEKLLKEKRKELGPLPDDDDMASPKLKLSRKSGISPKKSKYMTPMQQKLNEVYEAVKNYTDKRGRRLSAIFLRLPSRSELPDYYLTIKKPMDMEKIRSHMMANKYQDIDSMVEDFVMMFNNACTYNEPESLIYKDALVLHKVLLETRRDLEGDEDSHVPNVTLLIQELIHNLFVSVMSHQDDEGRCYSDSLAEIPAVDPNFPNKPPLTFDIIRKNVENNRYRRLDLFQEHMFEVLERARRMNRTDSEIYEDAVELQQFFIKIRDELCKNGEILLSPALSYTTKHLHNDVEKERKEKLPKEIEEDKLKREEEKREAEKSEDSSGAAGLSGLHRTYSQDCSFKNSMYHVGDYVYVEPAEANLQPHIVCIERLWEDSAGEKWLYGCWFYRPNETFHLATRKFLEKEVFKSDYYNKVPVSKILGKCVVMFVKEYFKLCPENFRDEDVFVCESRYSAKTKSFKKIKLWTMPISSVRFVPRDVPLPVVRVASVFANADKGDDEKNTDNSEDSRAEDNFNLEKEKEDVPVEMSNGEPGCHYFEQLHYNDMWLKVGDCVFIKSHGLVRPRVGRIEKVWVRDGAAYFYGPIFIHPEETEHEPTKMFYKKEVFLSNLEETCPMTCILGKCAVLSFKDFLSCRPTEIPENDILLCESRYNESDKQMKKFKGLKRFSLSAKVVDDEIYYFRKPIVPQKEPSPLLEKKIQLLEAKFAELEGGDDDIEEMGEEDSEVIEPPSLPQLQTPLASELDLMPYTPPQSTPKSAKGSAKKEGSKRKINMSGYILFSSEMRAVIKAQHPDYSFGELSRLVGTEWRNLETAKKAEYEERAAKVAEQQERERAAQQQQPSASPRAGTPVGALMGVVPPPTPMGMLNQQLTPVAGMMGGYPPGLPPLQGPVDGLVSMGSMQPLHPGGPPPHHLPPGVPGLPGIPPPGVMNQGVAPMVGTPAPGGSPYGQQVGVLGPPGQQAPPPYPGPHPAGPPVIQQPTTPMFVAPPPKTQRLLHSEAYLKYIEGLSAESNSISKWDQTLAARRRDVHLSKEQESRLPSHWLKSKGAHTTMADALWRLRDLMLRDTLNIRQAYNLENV

[15] = molecular target: CREB-binding protein (Homo sapiens) (UniProt Q92793)
[16] = molecular target: Bromodomain testis-specific protein (Homo sapiens) (UniProt Q58F21); remark: listed apart in the source
[17] = molecular target: Bromodomain and PHD finger-containing protein 3 (Homo sapiens) (UniProt Q9ULD4)
[18] = molecular target: Chromatin remodeling regulator CECR2 (Homo sapiens) (UniProt Q9BXF3)
[19] = molecular target: Bromodomain adjacent to zinc finger domain protein 2B (Homo sapiens) (UniProt Q9UIF8)
[20] = molecular target: Bromodomain-containing protein 2 (Homo sapiens) (UniProt P25440)
Bromodomain-containing protein 2 (Homo sapiens), sequence (P25440 whole entry, looked up): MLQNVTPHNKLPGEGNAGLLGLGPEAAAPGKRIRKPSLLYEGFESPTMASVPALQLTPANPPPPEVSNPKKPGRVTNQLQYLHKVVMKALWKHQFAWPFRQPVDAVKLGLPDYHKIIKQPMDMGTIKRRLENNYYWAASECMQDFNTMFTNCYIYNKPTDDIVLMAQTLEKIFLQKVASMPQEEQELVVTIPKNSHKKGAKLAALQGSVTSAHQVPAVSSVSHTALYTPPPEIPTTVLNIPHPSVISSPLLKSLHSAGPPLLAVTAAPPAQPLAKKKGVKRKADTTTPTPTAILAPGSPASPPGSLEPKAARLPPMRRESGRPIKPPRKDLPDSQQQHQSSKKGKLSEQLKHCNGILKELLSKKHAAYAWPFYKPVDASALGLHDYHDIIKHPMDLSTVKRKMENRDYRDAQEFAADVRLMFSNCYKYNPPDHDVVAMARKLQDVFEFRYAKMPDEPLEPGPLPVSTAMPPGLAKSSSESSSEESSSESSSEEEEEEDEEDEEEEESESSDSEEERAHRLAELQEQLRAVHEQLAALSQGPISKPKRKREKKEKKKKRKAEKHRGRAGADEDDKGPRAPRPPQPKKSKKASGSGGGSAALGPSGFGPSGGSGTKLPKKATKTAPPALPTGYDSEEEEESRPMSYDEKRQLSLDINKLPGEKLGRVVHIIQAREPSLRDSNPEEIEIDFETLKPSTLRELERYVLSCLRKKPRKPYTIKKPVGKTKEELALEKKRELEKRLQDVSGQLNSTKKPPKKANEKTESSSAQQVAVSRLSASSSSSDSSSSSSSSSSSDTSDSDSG

[21] = molecular target: Bromodomain-containing protein 4 (Homo sapiens) (UniProt O60885); remark: listed apart in the source
[22] = molecular target: Transcription initiation factor TFIID subunit 1-like (Homo sapiens) (UniProt Q8IZX4)
[23] = molecular target: Transcription initiation factor TFIID subunit 1-like (Homo sapiens) (UniProt Q8IZX4); remark: listed apart in the source
[24] = molecular target: Protein polybromo-1 (Homo sapiens) (UniProt Q86U86); remark: listed apart in the source
[25] = molecular target: Protein polybromo-1 (Homo sapiens) (UniProt Q86U86); remark: listed apart in the source
[26] = molecular target: Transcription intermediary factor 1-alpha (Homo sapiens) (UniProt O15164); remark: listed apart in the source
[27] = molecular target: Bromodomain-containing protein 3 (Homo sapiens) (UniProt Q15059)
Bromodomain-containing protein 3 (Homo sapiens), sequence (Q15059 2-726 limits assumed): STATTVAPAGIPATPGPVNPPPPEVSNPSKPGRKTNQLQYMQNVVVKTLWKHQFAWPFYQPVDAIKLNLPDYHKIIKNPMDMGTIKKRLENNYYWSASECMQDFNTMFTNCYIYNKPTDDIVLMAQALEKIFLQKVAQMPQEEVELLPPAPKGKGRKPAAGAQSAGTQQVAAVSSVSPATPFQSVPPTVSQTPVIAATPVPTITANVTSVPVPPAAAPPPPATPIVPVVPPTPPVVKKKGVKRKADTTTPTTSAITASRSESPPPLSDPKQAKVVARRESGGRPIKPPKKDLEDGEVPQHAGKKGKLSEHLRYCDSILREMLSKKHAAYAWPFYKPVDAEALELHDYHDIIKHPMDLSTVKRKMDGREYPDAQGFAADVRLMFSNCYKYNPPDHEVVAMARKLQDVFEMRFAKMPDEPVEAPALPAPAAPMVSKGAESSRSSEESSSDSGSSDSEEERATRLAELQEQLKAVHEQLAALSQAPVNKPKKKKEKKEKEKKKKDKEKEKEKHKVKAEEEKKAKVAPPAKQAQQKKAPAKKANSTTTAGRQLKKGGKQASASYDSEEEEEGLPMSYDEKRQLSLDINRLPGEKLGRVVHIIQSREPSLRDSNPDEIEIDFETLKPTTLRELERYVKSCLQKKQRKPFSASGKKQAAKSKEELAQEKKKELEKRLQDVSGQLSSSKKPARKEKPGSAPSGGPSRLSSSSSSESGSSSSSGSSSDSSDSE

[28] = molecular target: Bromodomain adjacent to zinc finger domain protein 2A (Homo sapiens) (UniProt Q9UIF9)
[29] = molecular target: SWI/SNF-related matrix-associated actin-dependent regulator of chromatin subfamily A member 2 (Homo sapiens) (UniProt P51531)
[30] = molecular target: Protein polybromo-1 (Homo sapiens) (UniProt Q86U86); remark: listed apart in the source
[31] = molecular target: Bromodomain-containing protein 1 (Homo sapiens) (UniProt O95696)
[32] = molecular target: Protein polybromo-1 (Homo sapiens) (UniProt Q86U86); remark: listed apart in the source
[33] = molecular target: Transcription initiation factor TFIID subunit 1 (Homo sapiens) (UniProt P21675)
Transcription initiation factor TFIID subunit 1 (Homo sapiens), sequence (P21675 whole entry): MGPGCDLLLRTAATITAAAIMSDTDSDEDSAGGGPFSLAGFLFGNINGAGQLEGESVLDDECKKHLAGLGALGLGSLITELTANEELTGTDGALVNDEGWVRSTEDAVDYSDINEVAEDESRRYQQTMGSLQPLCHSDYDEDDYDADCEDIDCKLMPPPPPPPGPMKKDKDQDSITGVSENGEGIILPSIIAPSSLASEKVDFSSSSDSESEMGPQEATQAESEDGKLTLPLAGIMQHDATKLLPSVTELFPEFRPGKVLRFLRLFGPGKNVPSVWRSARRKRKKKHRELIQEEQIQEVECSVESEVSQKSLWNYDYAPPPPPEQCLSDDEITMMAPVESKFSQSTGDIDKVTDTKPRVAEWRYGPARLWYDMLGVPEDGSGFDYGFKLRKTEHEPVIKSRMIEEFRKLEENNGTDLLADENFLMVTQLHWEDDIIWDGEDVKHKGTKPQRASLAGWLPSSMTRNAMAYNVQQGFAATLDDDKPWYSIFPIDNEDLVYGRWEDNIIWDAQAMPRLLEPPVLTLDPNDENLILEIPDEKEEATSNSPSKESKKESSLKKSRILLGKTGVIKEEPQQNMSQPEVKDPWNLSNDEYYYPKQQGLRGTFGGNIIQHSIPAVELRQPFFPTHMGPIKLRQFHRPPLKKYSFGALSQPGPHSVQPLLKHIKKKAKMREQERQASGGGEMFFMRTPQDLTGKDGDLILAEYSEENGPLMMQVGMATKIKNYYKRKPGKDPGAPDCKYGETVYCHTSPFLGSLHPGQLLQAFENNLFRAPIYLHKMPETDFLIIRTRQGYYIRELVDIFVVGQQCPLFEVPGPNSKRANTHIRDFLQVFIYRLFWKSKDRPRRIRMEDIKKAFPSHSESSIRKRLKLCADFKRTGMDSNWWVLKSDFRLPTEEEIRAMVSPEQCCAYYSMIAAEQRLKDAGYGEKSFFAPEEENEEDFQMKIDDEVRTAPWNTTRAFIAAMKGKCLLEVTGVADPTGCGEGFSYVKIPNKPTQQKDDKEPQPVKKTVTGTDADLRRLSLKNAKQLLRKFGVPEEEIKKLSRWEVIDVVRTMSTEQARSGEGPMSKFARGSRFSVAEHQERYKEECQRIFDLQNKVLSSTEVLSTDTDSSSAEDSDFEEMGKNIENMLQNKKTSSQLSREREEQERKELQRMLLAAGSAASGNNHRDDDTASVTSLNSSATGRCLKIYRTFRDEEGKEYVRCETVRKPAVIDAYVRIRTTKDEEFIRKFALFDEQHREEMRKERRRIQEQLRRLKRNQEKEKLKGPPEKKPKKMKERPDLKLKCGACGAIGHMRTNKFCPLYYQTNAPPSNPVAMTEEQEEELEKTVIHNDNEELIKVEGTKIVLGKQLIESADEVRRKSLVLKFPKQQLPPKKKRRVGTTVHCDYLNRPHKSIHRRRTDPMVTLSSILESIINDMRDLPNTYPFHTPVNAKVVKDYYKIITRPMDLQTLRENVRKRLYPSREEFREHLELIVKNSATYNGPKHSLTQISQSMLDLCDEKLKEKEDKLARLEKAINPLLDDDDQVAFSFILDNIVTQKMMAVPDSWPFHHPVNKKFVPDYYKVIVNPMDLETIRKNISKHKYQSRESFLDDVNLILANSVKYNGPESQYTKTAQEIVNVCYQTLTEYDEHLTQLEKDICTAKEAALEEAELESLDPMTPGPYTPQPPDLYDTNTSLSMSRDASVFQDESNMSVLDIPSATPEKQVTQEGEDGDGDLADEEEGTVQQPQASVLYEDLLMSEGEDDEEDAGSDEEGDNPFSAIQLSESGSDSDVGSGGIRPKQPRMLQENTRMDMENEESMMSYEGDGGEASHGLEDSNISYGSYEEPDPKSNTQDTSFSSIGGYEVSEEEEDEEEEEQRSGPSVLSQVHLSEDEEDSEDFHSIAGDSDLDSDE

[34] = molecular target: Histone-lysine N-methyltransferase ASH1L (Homo sapiens) (UniProt Q9NR48)
[35] = molecular target: Tyrosine-protein kinase BAZ1B (Homo sapiens) (UniProt Q9UIG0)
[36] = molecular target: Nuclear body protein SP140-like protein (Homo sapiens) (UniProt Q9H930)
[37] = molecular target: Histone acetyltransferase KAT2A (Homo sapiens) (UniProt Q92830)
[38] = molecular target: Protein polybromo-1 (Homo sapiens) (UniProt Q86U86); remark: listed apart in the source
[39] = molecular target: Transcription initiation factor TFIID subunit 1 (Homo sapiens) (UniProt P21675); remark: listed apart in the source
Peregrin (Homo sapiens) [40] = molecular target: Peregrin (Homo sapiens) (UniProt P55201); remark: listed apart in the source
[41] = molecular target: Bromodomain-containing protein 3 (Homo sapiens) (UniProt Q15059); remark: listed apart in the source
[42] = molecular target: Histone acetyltransferase p300 (Homo sapiens) (UniProt Q09472)
[43] = molecular target: Nucleosome-remodeling factor subunit BPTF (Homo sapiens) (UniProt Q12830)
[44] = molecular target: PH-interacting protein (Homo sapiens) (UniProt Q8WWQ0)
[45] = molecular target: Bromodomain-containing protein 2 (Homo sapiens) (UniProt P25440); remark: listed apart in the source
[46] = molecular target: Bromodomain and WD repeat-containing protein 1 (Homo sapiens) (UniProt Q9NSI6)
[47] = molecular target: Bromodomain adjacent to zinc finger domain protein 1A (Homo sapiens) (UniProt Q9NRL2)

Compound: Cc1nnc2c3ccccc3c(N[C@@H](C)[C@H](c3ccccc3)N(C)C)nn12
- ΔTm [1]: 0.09 °C
- ΔTm [2]: -2.19 °C
- ΔTm [3]: 1.14 °C
- ΔTm [4]: 0.56 °C
- ΔTm [5]: 2.16 °C
- ΔTm (Peregrin (Homo sapiens) [6]): 1.19 °C
- ΔTm [7]: 0.61 °C
- ΔTm [8]: -0.07 °C
- ΔTm [9]: 0.5 °C
- ΔTm [10]: 1.18 °C
- ΔTm [11]: 0.42 °C
- ΔTm [12]: 0.1 °C
- ΔTm [13]: 0.69 °C
- ΔTm [14]: 0.26 °C
- ΔTm [15]: 0.95 °C
- ΔTm [16]: 0.72 °C
- ΔTm [17]: 0.78 °C
- ΔTm [18]: 0.63 °C
- ΔTm [19]: 0.67 °C
- ΔTm [20]: -0.06 °C
- ΔTm [21]: 0.39 °C
- ΔTm [22]: 0.33 °C
- ΔTm [23]: 0.67 °C
- ΔTm [24]: 0.43 °C
- ΔTm [25]: 0.65 °C
- ΔTm [26]: 0.77 °C
- ΔTm [27]: 0.26 °C
- ΔTm [28]: 0.1 °C
- ΔTm [29]: 0.51 °C
- ΔTm [30]: 0.75 °C
- ΔTm [31]: -0.26 °C
- ΔTm [32]: 0.1 °C
- ΔTm [33]: 0.5 °C
- ΔTm [34]: 0.62 °C
- ΔTm [35]: 0.72 °C
- ΔTm [36]: 0.94 °C
- ΔTm [37]: 3.75 °C
- ΔTm [38]: 0.13 °C
- ΔTm [39]: 0.42 °C
- ΔTm (Peregrin (Homo sapiens) [40]): 1.03 °C
- ΔTm [41]: 0.13 °C
- ΔTm [42]: 0.86 °C
- ΔTm [43]: 0.08 °C
- ΔTm [44]: -0.82 °C
- ΔTm [45]: 0.23 °C
- ΔTm [46]: 2 °C
- ΔTm [47]: 1.31 °C

Reference: ChEMBL document CHEMBL4649995, “Discovery of a PCAF Bromodomain Chemical Probe” (Angew Chem Int Ed Engl, 2017)
